# Measured values reported in paper PMC4919790, “Allosteric modulation of AURKA kinase activity by a small-molecule inhibitor of its protein-protein interaction with TPX2” (Scientific Reports, 2016).
# Where two headings read alike, the source gives them in different places.
# Tests used:
# [1] = molecular target: T1, AURKA-TPX2 interaction (His-tagged AURKA123–403 / TAMRA-labelled TPX2 1–43) (Homo sapiens, UniProt O14965); test: Fluorescence anisotropy (FA) competition assay: displacement of TAMRA-TPX2 1-43 from AURKA123-403
# T1 sequence (O14965 123-403): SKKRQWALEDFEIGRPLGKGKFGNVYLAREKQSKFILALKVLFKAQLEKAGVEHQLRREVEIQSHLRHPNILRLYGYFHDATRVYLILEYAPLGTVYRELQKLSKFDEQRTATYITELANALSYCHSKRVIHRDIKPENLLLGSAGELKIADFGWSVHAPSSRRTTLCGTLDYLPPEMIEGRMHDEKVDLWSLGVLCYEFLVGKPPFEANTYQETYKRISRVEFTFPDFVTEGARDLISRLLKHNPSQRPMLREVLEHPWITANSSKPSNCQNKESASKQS
# Excerpt: The HTS actives were resupplied and retested to check for dose-dependent inhibition of the PPI in FA assay.
# [2] = molecular target: T2, AURKAGSMGS-126-390 (non-phosphorylated, uncleaved His-tag) (Homo sapiens, UniProt O14965); test: In vitro auto-phosphorylation assay (anti-pT288 Western blot); assay type: biochemical; conditions: AurkinA 100 μM, ATP 100 μM, protein 30 μM, up to 40 min
# T2 construct: Aurora-A kinase construct AurAGSMGS-126-391 was purified as described above; made in house; host or cells: E. coli BL21 (DE3) with pUBS550, co-expressed with lambda phosphatase
# T2 sequence (O14965 126-391): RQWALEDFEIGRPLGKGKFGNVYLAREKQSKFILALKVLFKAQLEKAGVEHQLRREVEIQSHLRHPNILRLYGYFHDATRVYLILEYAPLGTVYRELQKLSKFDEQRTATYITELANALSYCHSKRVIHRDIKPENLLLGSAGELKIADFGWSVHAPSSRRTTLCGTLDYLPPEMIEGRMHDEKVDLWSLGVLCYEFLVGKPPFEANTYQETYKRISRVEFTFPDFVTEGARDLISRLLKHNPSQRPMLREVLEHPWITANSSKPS
# Procedure: It has been extensively reported that auto-phosphorylation of […] in the activation loop stimulates AURKA kinase activity. […] For autophosphorylation experiments Aurora-A kinase construct […]-126-391 was purified as described above but using buffers containing no ATP and His-tag was left on the N-terminus. […] Control sample contained JNJ-7706621 (100 μM) that was added to the reaction prior ATP. 15 ng of each sample were run in 11% SDS-PAGE gels. Western blots were prepared by electro-blotting SDS-PAGE gels onto PVDF membranes (Millipore) and probing with anti-penta-his-tag antibody (1:2000 dilution, Qiagen, 34660) or anti-Aurora-A phosphoT288 antibodies (1:1000 dilution, Abcam, ab195748), followed by HRP conjugated […]-mouse antibodies (GE Healthcare) or HRP conjugated goat anti-rabbit antibodies (Abcam), respectively.
# [3] = molecular target: T3, AURKA (Aurora-AG-126-390) (Homo sapiens, UniProt O14965); test: Isothermal titration calorimetry; assay type: binding; conditions: for Kd: 25 °C; for Ligand efficiency (Leff): calculated using Ki or Kd values
# T3 construct: was titrated into Aurora-AG-126-390 protein solution (30 μM); extra N-terminal Gly from cloning (the 'G' of the construct name); 6xHis (read by me from reverse primer 4); made in house; host or cells: E. coli BL21 (DE3) with pUBS550, co-expressed with lambda phosphatase (pBAT4-λPP)
# T3 sequence (O14965 126-390): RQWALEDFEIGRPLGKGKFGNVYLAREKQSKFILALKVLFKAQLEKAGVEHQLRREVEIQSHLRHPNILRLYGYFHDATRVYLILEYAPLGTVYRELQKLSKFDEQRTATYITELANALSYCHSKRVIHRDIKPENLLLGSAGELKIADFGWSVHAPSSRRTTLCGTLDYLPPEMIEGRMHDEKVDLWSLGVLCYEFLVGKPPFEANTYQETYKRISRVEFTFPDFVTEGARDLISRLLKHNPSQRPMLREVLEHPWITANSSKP
# Procedure: Calorimetric titrations were performed on an iTC200 (MicroCal, Inc.) device. Protein was buffer exchanged into ITC buffer (Buffer C with 2% DMSO). Titration experiments were performed at 25 °C with an initial injection (0.4 μL) at a duration of 0.8 s, followed by 19 injections (2 μL) at a duration of 4 s. […] Binding isotherms were fit by non-linear regression using the single-site model provided by Origin software (MicroCal, Inc.). The stoichiometry of the interaction (N), equilibrium association constant (Ka) and change of enthalpy (ΔH) were floated during the fitting.
# [4] = molecular target: T4, pT287/pT288 AURKA126–390 (Homo sapiens, UniProt O14965); test: HTRF in vitro kinase assay (KinEASE, Cisbio); assay type: biochemical; conditions: excess inhibitor (25x Ki), absence of TPX2
# T4 construct: a T287/T288 doubly-phosphorylated recombinant AURKA126–390 in the absence of TPX2; 6xHis (inferred from reverse primer 4 of AurAG-126-390); made in house; host or cells: E. coli BL21 (DE3) with pUBS550
# T4 sequence (O14965 126-390): T3 sequence (O14965 126-390)
# [5] = test system: phosphorylated T288 (pT288) AURKA in mitotic HeLa cells; test: High-content AURKA T288-dephosphorylation assay; assay type: cell-based; conditions: Homo sapiens, read-out: EC50, % cells with below threshold pT288
# Procedure: A modified version of the Aurora A mislocalisation assay using the same cells, doxycycline-treated controls, drugging plan, Bortezomib treatment, fixing protocol, Hoechst staining and secondary antibodies as above. The primary antibodies used were anti-phospho Aurora A Thr288 (Cell Signaling, #3079, 1:500) and anti-Histone H3 phospho S10 (Abcam, 14955, 1:2000). High-content imaging settings were the same as for the mislocalisation assay, but analysis was performed using the CellHealthProfiling v4 Bioapplication. Cells were identified in the Hoechst channel as above, and the resulting nuclear mask used for all subsequent measurements. Mitotic cells were selected from the images on the basis of phospho-histone H3 positivity, using a threshold 10 times above the image background. These selected cells were then measured for phospho-Aurora A staining intensity within a target area defined by expanding the nuclear mask by 8 pixels then collapsing it using a threshold for the phospho-Aurora channel, set to 3 times the background staining in this channel. Assay thresholds were calculated from the negative control wells of each plate as for the mislocalisation assay and ‘% dephosphorylated Aurora A T288’ scores were calculated for each well. EC50 values were calculated from four-parameter dose-response curves that were fitted using Prism GraphPad software (La Jolla, CA).
# [6] = test system: AURKA on the spindle in mitotic HeLa cells; test: High-content microscopy assay of AURKA mislocalisation from spindle microtubules; assay type: cell-based; conditions: Homo sapiens, 2 h treatment, % cells with below threshold AURKA intensity under TPX2 mask
# Procedure: For quantitative determination of Aurora-A mislocalisation from spindle microtubules, cells were plated at a density of 0.75 × 10^5 cells per well of a clear flat bottom 96-well plate. On each plate a set of wells were treated with doxycycline as a positive control. After 24 h the compounds were diluted in […] Bortezomib (Selleck Chemicals) and treated for 2 h. Hereafter all steps were carried out at room temperature. The cells were fixed by addition of freshly prepared PHEM-buffered formaldehyde (100 μL per well) for 10 minutes (100 mM PIPES, 20 mM HEPES, 5 mM EGTA, 2 mM MgCl2, 0.2% TritonX-100, 6.4% formaldehyde). These were permeablised with 100 μl of PBS-T-T (1X PBS/0.1% Triton- 100/0.1% Tween-20) for 10 min, blocked in 3% BSA-PBS-T-T for 30 min. Hereafter all the steps including dilution of antibodies was done in the blocking solution. A cocktail of primary antibodies (50 μL, mouse anti-TPX2, Abcam 32795, 18D5-1, 1:500; rabbit anti-Aurora A, Millipore EP1008Y, 1:1000) for 1.5 h and washed thrice with the blocking solution. […]
# The plates were scanned using Molecular Translocation protocol with 40X objective with 3 flurophore recognising channels. […] The software generated an overlay of TPX2-stained spindles (channel 2), and the average intensity of the Aurora-A (channel 3) within that mask was scored. […]
# [7] = molecular target: T5, AURKA / mCherry-TPX2 1–43 (Homo sapiens, UniProt O14965); test: Co-immunoprecipitation of AURKA and mCherry-TPX2 1-43 from HeLa cell lysates; conditions: cell lysates (500 µg) incubated 2 h, 25-400 µM, +DOX
# T5 construct: endogenous in cells; host or cells: HeLa FlpIn TREx lysate; AURKA endogenous, mCherry-TPX2 1-43 stably transfected and doxycycline-induced
# T5 sequence (O14965 1-403): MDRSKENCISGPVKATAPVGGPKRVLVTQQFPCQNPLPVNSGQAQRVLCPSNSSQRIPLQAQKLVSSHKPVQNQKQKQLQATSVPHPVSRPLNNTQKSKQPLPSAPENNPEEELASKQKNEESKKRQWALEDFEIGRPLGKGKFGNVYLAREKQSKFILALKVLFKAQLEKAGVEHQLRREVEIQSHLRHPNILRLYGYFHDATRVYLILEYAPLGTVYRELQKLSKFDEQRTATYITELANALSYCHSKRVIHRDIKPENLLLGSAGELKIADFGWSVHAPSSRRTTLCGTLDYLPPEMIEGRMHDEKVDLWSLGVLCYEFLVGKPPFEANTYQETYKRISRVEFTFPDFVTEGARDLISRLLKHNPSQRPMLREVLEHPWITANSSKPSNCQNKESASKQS
# Procedure: Stable HeLa FlpIn TREx cell line expressing a fusion mCherry-TPX2_1–43 protein upon addition of doxycycline ([…]) was generated (Supplementary Methods). This cell line was used for further experiments. For immunoblotting, proteins were extracted in lysis buffer (50 mM HEPES, pH 7.4; 100 mM NaCl, 0.5% NP-40, 10 mM EDTA, 20 mM β-glycerophosphate, 1 mM DTT, 1 mM sodium orthovanadate, 1 mM PMSF, protease inhibitors and phosphatase inhibitor (Roche)). 0.5 mg of lysate was used for co-immunoprecipitation. mCherry pull down was performed using RFP-trap (Chromotrap) following manufacturers’ instructions. Extracts were resolved by SDS-PAGE, transferred to PVDF membrane, blocked in TBS-Tween (50 mM Tris pH 7.6, 150 mM NaCl, 0.1% Tween-20) plus 5% non-fat dried milk, and probed with primary antibodies at 4 °C overnight. Membrane was incubated with secondary mouse HRP (GE Healthcare, NXA931) and rabbit HRP antibodies (Jackson Laboratories, 111-036-047) for 1 h at room temperature and the signal was developed using ECL or ECL prime reagent (GE Healthcare).
# co -‐immunoprecipitation
# (1 picture or pasted object on this page, not shown here)
# [8] = Average IC50, Supplementary Table 1, FA assay
# [9] = Calculated Ki, Supplementary Table 1, free-concentration corrected Cheng-Prusov
# [10] = IC50, inhibition of AURKA:TPX2 interaction in FA assay, Fig. 1b
# [11] = Ki from FA competition assay, free-concentration corrected Cheng-Prusov equations
Structure (SMILES),"IC50 [1, 8]","Ki [1, 9]","N (stoichiometry, ITC fit) ([3]; single-site model fit)",∆H (ITC fit) ([3]; single-site model fit),∆S (ITC fit) ([3]; single-site model fit),Ligand efficiency (Leff) [3],"IC50 [1, 10]","Ki [1, 11]",also measured
O=C(O)c1cc(-c2cccc(Br)c2)nc2ccc(Cl)cc12 [AA29],34.4 µM,7.4 µM,–,–,–,–,–,–,–
O=C(O)c1cc(-c2cccc(Br)c2)nc2ccccc12 [AA30],25.6 µM,5.5 µM,–,–,–,–,–,–,–
"O=C(O)c1cc(-c2cccc(Br)c2)nc2c(F)cccc12 [AurkinA, 2-(3-bromophenyl)-8-fluoroquinoline-4-carboxylic acid]",–,–,0.924 Sites,-23090 cal/mol,-52.6 cal/mol/deg,–,–,–,Effect on auto-phosphorylation of AURKA (pT288) [2]: significantly delayed; -T∆S of binding ([3]; ITC): 15.7 kcal/mol; ∆H of binding ([3]; ITC): -23.1 kcal/mol; Maximal inhibition of kinase activity (plateau) [4]: ~ 75%; EC50 [5]: 135 µM; EC50 [6]: 85 µM; Effect on co-immunoprecipitation of AURKA with RFP (mCherry-TPX2 1-43) [7]: inhibited
O=C(O)c1ccccc1NC(=O)c1cc(-c2ccccc2)nc2ccccc12 [compound 1],–,–,0.975 ±0.0300 Sites,-5917 ± 239.7 cal/mol,2.92 cal/mol/deg,0.25,41 µM,8.9 µM,"Kd ([3]; read-out: Kd (ITC)): 10.6 µM; Kd ([3]; read-out: pKd (ITC) (converted)): 10.5 µM; K (association constant, ITC fit) ([3]; single-site model fit): 94700 ± 7610 M⁻¹; Effect of JNJ-7706621 on the compound's inhibition of the AURKA-TPX2 1-43 interaction ([1]; [JNJ] = 0.4 μM vs DMSO): unaffected"
"O=C(O)c1cc(-c2ccccc2)nc2ccccc12 [compound 3, 2-phenyl-4-carboxyquinoline, reference compound]",289 µM,62.5 µM,–,–,–,0.31,63 µM,68 µM,–
